Assay results taken from ChEMBL document CHEMBL1201861, “Genomics of Drug Sensitity in Cancer screening data, Wellcome Trust Sanger Institute”.

How the values were obtained:
Assay in all cases: cells
[1] = system: KURAMOCHI; assay type: functional, cell-based, Homo sapiens; conditions: Homo sapiens, KURAMOCHI;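 also: growth inhibition of KURAMOCHI cells, read out with a cell viability assay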
Description: SANGER: Inhibition of human KURAMOCHI cell growth in a cell viability assay.

[2] = system: 8-MG-BA; assay type: functional, cell-based, Homo sapiens; conditions: Homo sapiens, 8-MG-BA;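 also: growth inhibition of 8-MG-BA cells, read out with a cell viability assay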
Description: SANGER: Inhibition of human 8-MG-BA cell growth in a cell viability assay.

[3] = system: NCI-H1299; assay type: functional, cell-based, Homo sapiens; conditions: Homo sapiens, NCI-H1299;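 also: growth inhibition of human NCI-H1299 cells, read out by a cell viability assay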
Description: SANGER: Inhibition of human NCI-H1299 cell growth in a cell viability assay.

[4] = system: D-392MG; assay type: functional, cell-based, Homo sapiens; conditions: Homo sapiens, D-392MG
[5] = system: MZ7-mel; assay type: functional, cell-based, Homo sapiens; conditions: Homo sapiens, MZ7-mel;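 also: growth inhibition of human MZ7-mel cells, measured by a cell viability assay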
Description: SANGER: Inhibition of human MZ7-mel cell growth in a cell viability assay.

[6] = system: LOX IMVI; assay type: functional, cell-based, Homo sapiens; conditions: Homo sapiens, LOX IMVI
Description: SANGER: Inhibition of human LOXIMVI cell growth in a cell viability assay.

[7] = system: NCI-H1395; assay type: functional, cell-based, Homo sapiens; conditions: Homo sapiens, NCI-H1395;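 also: cell viability assay read-out quantifying reduced proliferation of human NCI-H1395 cells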
Description: SANGER: Inhibition of human NCI-H1395 cell growth in a cell viability assay.

[8] = system: no-11; assay type: functional, cell-based, Homo sapiens; conditions: Homo sapiens;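 also: growth inhibition of human NO-11 cells, read out with a cell viability assay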
Description: SANGER: Inhibition of human no-11 cell growth in a cell viability assay.

[9] = system: COLO-668; assay type: functional, cell-based, Homo sapiens; conditions: Homo sapiens, COLO-668
Description: SANGER: Inhibition of human COLO-668 cell growth in a cell viability assay.

[10] = system: HCE-4; assay type: functional, cell-based, Homo sapiens; conditions: Homo sapiens, HCE-4;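 also: cell viability assay measuring inhibition of growth in the human HCE-4 cell line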
Description: SANGER: Inhibition of human HCE-4 cell growth in a cell viability assay.

[11] = system: EW-1; assay type: functional, cell-based, Homo sapiens; conditions: Homo sapiens, EW-1;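 also: growth inhibition of the human EW-1 cell line, read out by a cell viability assay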
Description: SANGER: Inhibition of human EW-1 cell growth in a cell viability assay.

[12] = system: GAK; assay type: functional, cell-based, Homo sapiens; conditions: Homo sapiens, GAK;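 also: cell growth inhibition read out by a cell viability assay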
Description: SANGER: Inhibition of human GAK cell growth in a cell viability assay.

[13] = system: HCC 2998; assay type: functional, cell-based, Homo sapiens; conditions: Homo sapiens, HCC 2998;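 also: growth inhibition of human HCC2998 cells, measured with a cell viability read-out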
Description: SANGER: Inhibition of human HCC2998 cell growth in a cell viability assay.

[14] = system: A253 cell line; assay type: functional, cell-based, Homo sapiens; conditions: Homo sapiens, A253;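 also: growth inhibition of A253 cells, read out with a cell viability assay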
Description: SANGER: Inhibition of human A253 cell growth in a cell viability assay.

[15] = system: BB30-HNC; assay type: functional, cell-based, Homo sapiens; conditions: Homo sapiens, BB30-HNC;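 also: growth inhibition of the cultured cell line, read out by a cell viability assay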
Description: SANGER: Inhibition of human BB30-HNC cell growth in a cell viability assay.

[16] = system: SW982; assay type: functional, cell-based, Homo sapiens; conditions: Homo sapiens, SW982;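 also: growth inhibition of SW982 cells, read out with a cell viability assay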
Description: SANGER: Inhibition of human SW982 cell growth in a cell viability assay.

[17] = system: EW-16; assay type: functional, cell-based, Homo sapiens; conditions: Homo sapiens, EW-16;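 also: growth inhibition of human EW-16 cells, read out as cell viability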
Description: SANGER: Inhibition of human EW-16 cell growth in a cell viability assay.

[18] = system: LAN-6; assay type: functional, cell-based, Homo sapiens; conditions: Homo sapiens, LAN-6;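 also: growth inhibition of LAN-6 cells, determined with a cell viability assay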
Description: SANGER: Inhibition of human LAN-6 cell growth in a cell viability assay.

[19] = system: EW-11; assay type: functional, cell-based, Homo sapiens; conditions: Homo sapiens, EW-11;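 also: growth inhibition of human EW-11 cells, measured with a cell viability assay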
Description: SANGER: Inhibition of human EW-11 cell growth in a cell viability assay.

[20] = system: COLO-800; assay type: functional, cell-based, Homo sapiens; conditions: Homo sapiens, COLO-800;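 also: growth inhibition of COLO-800 cells, read out with a cell viability assay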
Description: SANGER: Inhibition of human COLO-800 cell growth in a cell viability assay.

[21] = system: A388; assay type: functional, cell-based, Homo sapiens; conditions: Homo sapiens, A388;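 also: growth inhibition of human A388 cells, read out with a cell viability assay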
Description: SANGER: Inhibition of human A388 cell growth in a cell viability assay.

[22] = system: TE-8; assay type: functional, cell-based, Homo sapiens; conditions: Homo sapiens, TE-8;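 also: growth inhibition of TE-8 cells, measured with a cell viability readout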
Description: SANGER: Inhibition of human TE-8 cell growth in a cell viability assay.

[23] = system: LS-123; assay type: functional, cell-based, Homo sapiens; conditions: Homo sapiens, LS-123
Description: SANGER: Inhibition of human LS-123 cell growth in a cell viability assay.

[24] = system: JAR; assay type: functional, cell-based, Homo sapiens; conditions: Homo sapiens, JAR;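 also: growth inhibition of human JAR cells determined with a cell viability assay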
Description: SANGER: Inhibition of human JAR cell growth in a cell viability assay.

[25] = system: LB771-HNC; assay type: functional, cell-based, Homo sapiens; conditions: Homo sapiens, LB771-HNC;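 also: growth inhibition of LB771-HNC human cells, read out with a cell viability assay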
Description: SANGER: Inhibition of human LB771-HNC cell growth in a cell viability assay.

[26] = system: SHP77; assay type: functional, cell-based, Homo sapiens, SHP-77; conditions: Homo sapiens, SHP77;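 also: growth inhibition of human SHP-77 cells measured by a cell viability assay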
Description: SANGER: Inhibition of human SHP-77 cell growth in a cell viability assay.

[27] = system: KNS-42; assay type: functional, cell-based, Homo sapiens; conditions: Homo sapiens, KNS-42;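 also: growth inhibition of KNS-42 cells, read out with a cell viability assay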
Description: SANGER: Inhibition of human KNS-42 cell growth in a cell viability assay.

[28] = system: KS-1; assay type: functional, cell-based, Homo sapiens; conditions: Homo sapiens, KS-1;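 also: growth inhibition of KS-1 cells, read out with a cell viability assay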
Description: SANGER: Inhibition of human KS-1 cell growth in a cell viability assay.

[29] = system: NB17; assay type: functional, cell-based, Homo sapiens; conditions: Homo sapiens, NB17;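 also: growth inhibition of NB17 cells, read out with a cell viability assay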
Description: SANGER: Inhibition of human NB17 cell growth in a cell viability assay.

[30] = system: CGTH-W-1; assay type: functional, cell-based, Homo sapiens; conditions: Homo sapiens, CGTH-W-1;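 also: growth inhibition of human CGTH-W-1 cells measured by cell viability assay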
Description: SANGER: Inhibition of human CGTH-W-1 cell growth in a cell viability assay.

[31] = system: D283 Med; assay type: functional, cell-based, Homo sapiens; conditions: Homo sapiens, D283 Med
Description: SANGER: Inhibition of human D-283MED cell growth in a cell viability assay.

[32] = system: COLO-829; assay type: functional, cell-based, Homo sapiens; conditions: Homo sapiens, COLO-829
Description: SANGER: Inhibition of human COLO-829 cell growth in a cell viability assay.

[33] = system: ES8; assay type: functional, cell-based, Homo sapiens; conditions: Homo sapiens, ES8;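 also: growth inhibition of human ES8 cells, read out with a cell viability assay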
Description: SANGER: Inhibition of human ES8 cell growth in a cell viability assay.

[34] = system: TE-5; assay type: functional, cell-based, Homo sapiens; conditions: Homo sapiens, TE-5;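 also: inhibition of cell growth, read out by a cell viability assay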
Description: SANGER: Inhibition of human TE-5 cell growth in a cell viability assay.

[35] = system: Calu-6; assay type: functional, cell-based, Homo sapiens; conditions: Homo sapiens, Calu-6;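 also: growth of human Calu-6 cells, read out by a cell viability assay, IC50 marking inhibition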
Description: SANGER: Inhibition of human Calu-6 cell growth in a cell viability assay.

[36] = system: TE-9; assay type: functional, cell-based, Homo sapiens; conditions: Homo sapiens, TE-9;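 also: cell growth inhibition, measured with a cell viability readout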
Description: SANGER: Inhibition of human TE-9 cell growth in a cell viability assay.

[37] = system: NCI-H720; assay type: functional, cell-based, Homo sapiens; conditions: Homo sapiens, NCI-H720;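 also: growth inhibition of human NCI-H720 cells determined by a cell viability assay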
Description: SANGER: Inhibition of human NCI-H720 cell growth in a cell viability assay.

[38] = system: TE-12; assay type: functional, cell-based, Homo sapiens; conditions: Homo sapiens, TE-12;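 also: growth inhibition of TE-12 cells, read out by a cell viability assay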
Description: SANGER: Inhibition of human TE-12 cell growth in a cell viability assay.

[39] = system: HDLM-2; assay type: functional, cell-based, Homo sapiens; conditions: Homo sapiens, HDLM-2;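 also: cell viability assay measuring suppression of HDLM-2 proliferation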
Description: SANGER: Inhibition of human HDLM-2 cell growth in a cell viability assay.

[40] = system: KM-H2; assay type: functional, cell-based, Homo sapiens; conditions: Homo sapiens, KM-H2;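 also: growth inhibition of KM-H2 cells, read out by a cell viability assay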
Description: SANGER: Inhibition of human KM-H2 cell growth in a cell viability assay.

[41] = system: COLO-320-HSR; assay type: functional, cell-based, Homo sapiens; conditions: Homo sapiens, COLO-320-HSR;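 also: growth inhibition of COLO-320-HSR cells, determined with a cell viability assay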
Description: SANGER: Inhibition of human COLO-320-HSR cell growth in a cell viability assay.

[42] = system: BV-173; assay type: functional, cell-based, Homo sapiens; conditions: Homo sapiens, BV-173
Description: SANGER: Inhibition of human BV-173 cell growth in a cell viability assay.

[43] = system: HH; assay type: functional, cell-based, Homo sapiens; conditions: Homo sapiens, HH
Description: SANGER: Inhibition of human HH cell growth in a cell viability assay.

[44] = system: EOL1; assay type: functional, cell-based, Homo sapiens; conditions: Homo sapiens, EOL1;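 also: growth inhibition of EoL-1 cells, read out by a cell viability assay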
Description: SANGER: Inhibition of human EoL-1-cell cell growth in a cell viability assay.

[45] = system: ALL-PO; assay type: functional, cell-based, Homo sapiens; conditions: Homo sapiens, ALL-PO;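 also: growth inhibition of ALL-PO cells, read out by a cell viability assay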
Description: SANGER: Inhibition of human ALL-PO cell growth in a cell viability assay.

[46] = system: ML-2; assay type: functional, cell-based, Homo sapiens; conditions: Homo sapiens, ML-2;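 also: growth inhibition of ML-2 cells, measured with a cell viability readout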
Description: SANGER: Inhibition of human ML-2 cell growth in a cell viability assay.

[47] = system: COLO-684; assay type: functional, cell-based, Homo sapiens; conditions: Homo sapiens, COLO-684
Description: SANGER: Inhibition of human COLO-684 cell growth in a cell viability assay.

[48] = system: DB; assay type: functional, cell-based, Homo sapiens; conditions: Homo sapiens, DB
Description: SANGER: Inhibition of human DB cell growth in a cell viability assay.

[49] = system: HL-60; assay type: functional, cell-based, Homo sapiens; conditions: Homo sapiens, HL-60;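 also: growth inhibition of human HL-60 cells, read out with a cell viability assay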
Description: SANGER: Inhibition of human HL-60 cell growth in a cell viability assay.

CC(C)c1ccccc1Cc1cc(C(=O)Nc2ccc(S(=O)(=O)c3ccccc3C(C)(C)C)cc2)c(O)c(O)c1O
IC50 [1]: 1940 nM
IC50 [2]: 154 nM
IC50 [3]: 280 nM
IC50 [4]: 1420 nM
IC50 [5]: 1730 nM
IC50 [6]: 271 nM
IC50 [7]: 612 nM
IC50 [8]: 2840 nM
IC50 [9]: 5100 nM
IC50 [10]: 469 nM
IC50 [11]: 227 nM
IC50 [12]: 2030 nM
IC50 [13]: 5890 nM
IC50 [14]: 570 nM
IC50 [15]: 162 nM
IC50 [16]: 111 nM
IC50 [17]: 185 nM
IC50 [18]: 160 nM
IC50 [19]: 434 nM
IC50 [20]: 183 nM
IC50 [21]: 167 nM
IC50 [22]: 129 nM
IC50 [23]: 2200 nM
IC50 [24]: 2.6 nM
IC50 [25]: 166 nM
IC50 [26]: 451 nM
IC50 [27]: 2540 nM
IC50 [28]: 322 nM
IC50 [29]: 1060 nM
IC50 [30]: 186 nM
IC50 [31]: 284 nM
IC50 [32]: 701 nM
IC50 [33]: 119 nM
IC50 [34]: 884 nM
IC50 [35]: 887 nM
IC50 [36]: 225 nM

CC(C)CCN1c2nc(Nc3cc(F)c(O)c(F)c3)ncc2N(C)C(=O)C1C (stereo not given)
IC50 [1]: > 5000 nM
IC50 [37]: 172 nM
IC50 [2]: 2230 nM
IC50 [3]: 2940 nM
IC50 [4]: > 5000 nM
IC50 [5]: > 5000 nM
IC50 [38]: > 5000 nM
IC50 [39]: > 5000 nM
IC50 [6]: 2040 nM
IC50 [7]: 2470 nM
IC50 [8]: > 5000 nM
IC50 [9]: > 5000 nM
IC50 [10]: > 5000 nM
IC50 [11]: 2750 nM
IC50 [12]: > 5000 nM
IC50 [13]: > 5000 nM
IC50 [14]: > 5000 nM
IC50 [40]: > 5000 nM
IC50 [15]: > 5000 nM
IC50 [16]: > 5000 nM
IC50 [17]: > 5000 nM
IC50 [18]: > 5000 nM
IC50 [19]: 3410 nM
IC50 [20]: 2540 nM
IC50 [21]: > 5000 nM
IC50 [22]: 3190 nM
IC50 [23]: > 5000 nM
IC50 [24]: > 5000 nM
IC50 [41]: > 5000 nM
IC50 [25]: > 5000 nM
IC50 [42]: 1990 nM
IC50 [26]: > 5000 nM
IC50 [43]: 2800 nM
IC50 [44]: 1020 nM
IC50 [45]: > 5000 nM
IC50 [27]: > 5000 nM
IC50 [28]: > 5000 nM
IC50 [46]: 856 nM
IC50 [29]: > 5000 nM
IC50 [30]: 3940 nM
IC50 [47]: > 5000 nM
IC50 [31]: 2240 nM
IC50 [32]: 3670 nM
IC50 [33]: 1880 nM
IC50 [48]: 2550 nM
IC50 [34]: > 5000 nM
IC50 [35]: > 5000 nM
IC50 [36]: 2170 nM
IC50 [49]: 884 nM
